According to ChEMBL document CHEMBL5661943, “ASAP - In vitro antiviral effect” (2024):
Values joined by “and” are separate entries in the source; they are usually repeats but may differ in a detail not shown here. Identical values can stand only once.

Experiments:
dengue virus type 2 [1] = assay: Functional assay to measure dose dependent changes in antiviral-drug inhibitory efficacy against Dengue virus type 2 New Guinea C in Vero E6 miRFP670 cells (cotreated with P-gp inhibitor, CP100356). Cells are treated with antiviral candidates that are serially diluted, following infection, cells are fixed. EC50 is reported via analysis of fluorescence intensity using high-content imager. The …; assay type: organism-based, Chlorocebus sabaeus, Vero C1008
Zika virus [2] = assay: EC50 is reported via analysis of immunofluorescence staining. The assay has been performed by Icahn School of Medicine at Mount Sinai.; assay type: functional, organism-based, Chlorocebus sabaeus, VeroE6/TMPRSS2
Zika virus [3] = assay: (§1) Functional CPE-based assay to measure dose dependent changes in antiviral-drug inhibitory efficacy against Zika virus MR766 in Vero E6 miRFP670 cells. Cells are treated with antiviral candidates that are serially diluted. EC50 is reported via analysis of MTS assay as a readout of CPE. The assay has been performed by KU Leuven.; assay type: organism-based, Chlorocebus sabaeus, Vero C1008
Zika virus [4] = assay: as §1, with “cells (cotreated with P-gp inhibitor, CP100356).” for “cells.”; assay type: organism-based, Chlorocebus sabaeus, Vero C1008; conditions: for EC90: Baseline response 0 %, Maximum response 100 %, P-gp inhibitor CP100356
dengue virus type 2 [5] = assay: Functional assay to measure dose dependent changes in antiviral-drug inhibitory efficacy against Dengue virus type 2 New Guinea C in Vero E6 miRFP670 cells. Cells are treated with antiviral candidates that are serially diluted, following infection, cells are fixed. EC50 is reported via analysis of fluorescence intensity using high-content imager. The assay has been performed by KU Leuven.; assay type: organism-based, Chlorocebus sabaeus
dengue virus type 2 [6] = assay: (§2) Functional immunofluorescence assay to measure dose dependent changes in antiviral-drug inhibitory efficacy against Dengue virus type 2 Thailand/16681/84 in Vero E6/TMPRSS2 cells (cotreated with P-gp inhibitor, Elacridar). Cells are treated with antiviral candidates that are serially diluted, following infection, cells are fixed. EC50 is reported via analysis of immunofluorescence staining. The assay has been performed by Icahn School of Medicine at Mount Sinai.; assay type: organism-based, Chlorocebus sabaeus, VeroE6/TMPRSS2
[7] = test system: Middle East respiratory syndrome-related coronavirus; assay: microbe, parasite or virus in culture; assay type: functional, organism-based, Chlorocebus sabaeus; conditions: VeroE6/TMPRSS2
dengue virus type 2 [8] = assay: as §2, with “cells.” for “cells (cotreated with P-gp inhibitor, Elacridar).”; assay type: organism-based, Chlorocebus sabaeus; conditions: for EC50: VeroE6/TMPRSS2; for EC90: VeroE6/TMPRSS2, Baseline response 0 %, Maximum response 100 %
Zika virus [9] = assay: as §2, with “Zika” for “Dengue”, “PRVABC59” for “type 2 Thailand/16681/84”, “cells.” for “cells (cotreated with P-gp inhibitor, Elacridar).”; assay type: organism-based, Chlorocebus sabaeus; conditions: for EC50: VeroE6/TMPRSS2
dengue virus type 2 [10] = assay: as §1, with “Dengue” for “Zika”, “type 2 New Guinea C” for “MR766”, “Huh7” for “Vero E6 miRFP670”, “MTT/MTS” for “MTS”, “National Institute of Allergy and Infectious Diseases.” for “KU Leuven.”; assay type: organism-based, Homo sapiens; conditions: Huh-7

O=C(Nc1ccc2c(c1)CNC2)c1cc(Cl)cc2[nH]ncc12
EC50 (dengue virus type 2 [1]; Dengue virus, Vero C1008): > 50 µM | EC90 (dengue virus type 2 [1]; Dengue virus, Vero C1008, Maximum measured 2.237 %, Minimum measured -2.116 %, P-gp concentration 100 nM, P-gp inhibitor CP100356): > 50 µM | EC90 (dengue virus type 2 [1]; Dengue virus, Vero C1008, Maximum measured 108.122 %, Minimum measured 103.322 %, P-gp concentration 500 nM, P-gp inhibitor CP100356): > 50 µM | EC90 (dengue virus type 2 [1]; Dengue virus, Vero C1008, Maximum measured 122.049 %, Minimum measured 106.43 %, P-gp concentration 500 nM, P-gp inhibitor CP100356): > 50 µM | EC50 (Zika virus [2]; Zika virus, VeroE6/TMPRSS2): 12.7 µM | EC90 (Zika virus [2]; Zika virus, VeroE6/TMPRSS2, Baseline response 0 %, Hill slope -1.535, Maximum measured 150.297 %, Maximum response 100 %, Minimum measured 39.396 %, P-gp concentration 2 uM, R squared 0.523, P-gp inhibitor Elacidar): > 16.7 µM | EC90 (Zika virus [3]; Zika virus, Vero C1008, Baseline response 0 %, Hill slope 1.599, Maximum measured 39.692 %, Maximum response 100 %, Minimum measured -0.234 %, R squared 0.961): > 50 µM | EC90 (Zika virus [3]; Zika virus, Vero C1008, Baseline response 0 %, Hill slope 4.496, Maximum measured 86.5 %, Maximum response 100 %, Minimum measured 2.921 %, R squared 0.876): > 50 µM | EC90 (Zika virus [3]; Zika virus, Vero C1008, Baseline response 0 %, EC90 CI (lower) 23.876 uM, EC90 CI (upper) 46.036 uM, Hill slope 2.096, Maximum measured 107.811 %, Maximum response 100 %, Minimum measured 2.258 %, R squared 0.969): 33.1 µM | EC50 (Zika virus [3]; vero c1008): 34 µM and > 50 µM and 11.6 µM | EC90 (Zika virus [4]; EC90 CI (lower) 3.61 uM, EC90 CI (upper) 15.25 uM, Hill slope 2.511, Maximum measured 126.79 %, Minimum measured 6.324 %, P-gp concentration 500 nM, R squared 0.896): 7.42 µM | EC50 (Zika virus [4]; Zika virus, Vero C1008): 4.57 µM | EC90 (Zika virus [4]; Zika virus, Vero C1008, EC90 CI (lower) 7.143 uM, EC90 CI (upper) 23.592 uM, Hill slope 2.106, Maximum measured 121.753 %, Minimum measured 3.066 %, P-gp concentration 100 nM, R squared 0.93): 13 µM | EC50 (Zika virus [4]; vero c1008): 3.09 µM | EC50 (dengue virus type 2 [5]; Vero C1008): > 50 µM | EC90 (dengue virus type 2 [5]; Vero C1008, Baseline response 0 %, Hill slope -0.996, Maximum measured 1.395 %, Maximum response 100 %, Minimum measured -3.373 %, R squared 0.016): > 50 µM | EC50 (dengue virus type 2 [6]; Dengue virus, VeroE6/TMPRSS2): > 50 µM | EC90 (dengue virus type 2 [6]; Dengue virus, VeroE6/TMPRSS2, Maximum measured 202.528 %, Minimum measured 74.934 %, P-gp concentration 2 uM, P-gp inhibitor Elacidar): > 50 µM

C=CC[C@H](Nc1cccc(-c2nn[nH]n2)c1)c1cc(Cl)cc2[nH]ncc12
EC50 [7]: 0.988 µM | EC90 [7]: 2.78 µM

CC(C)CNC(=O)c1cc(Cl)c(F)cc1NS(=O)(=O)c1ccc(Oc2ccccc2Cl)cc1
EC90 (dengue virus type 2 [1]; Baseline response 0 %, Hill slope -36.406, Maximum measured 110.21 %, Maximum response 100 %, Minimum measured 0.136 %, P-gp concentration 500 nM, R squared 0.986, P-gp inhibitor CP100356): 5.99 µM | EC50 (dengue virus type 2 [1]; Dengue virus, Vero C1008): 5.32 µM | EC90 (dengue virus type 2 [1]; Dengue virus, Vero C1008): 5.85 µM | EC50 (dengue virus type 2 [1]; vero c1008): 5.64 µM | EC50 (dengue virus type 2 [8]): 0.193 µM | EC90 (dengue virus type 2 [8]; Hill slope -0.469, Maximum measured 101.396 %, Minimum measured 33.359 %, R squared 0.321): > 1.85 µM | EC90 (Zika virus [2]; Baseline response 0 %, Hill slope -1.279, Maximum measured 136.576 %, Maximum response 60 %, Minimum measured 13.183 %, P-gp concentration 2 uM, R squared 0.138, P-gp inhibitor Elacidar): > 50 µM | EC90 (Zika virus [2]; Baseline response 0 %, Hill slope -13.406, Maximum measured 146.245 %, Maximum response 100 %, Minimum measured 54.335 %, P-gp concentration 2 uM, R squared 0.12, P-gp inhibitor Elacidar): > 16.7 µM | EC50 (Zika virus [2]; Zika virus, VeroE6/TMPRSS2): > 16.7 µM | EC50 (Zika virus [2]; veroe6/tmprss2): 27.9 µM | EC50 (Zika virus [3]; Zika virus, Vero C1008): > 50 µM | EC90 (Zika virus [3]; Zika virus, Vero C1008, Baseline response 0 %, Hill slope -1.049, Maximum measured 4.723 %, Maximum response 100 %, Minimum measured -5.364 %, R squared 0.235): > 50 µM | EC90 (Zika virus [3]; Zika virus, Vero C1008, Maximum measured 0.142 %, Minimum measured -3.427 %): > 50 µM | EC90 (Zika virus [3]; Zika virus, Vero C1008, Maximum measured 0.689 %, Minimum measured -11.388 %): > 50 µM | EC50 (Zika virus [9]): > 50 µM | EC90 (Zika virus [9]; VeroE6/TMPRSS2, Maximum measured 624.218 %, Minimum measured 63.552 %): > 50 µM | EC50 (dengue virus type 2 [10]): > 3.1 µM | EC90 (dengue virus type 2 [6]; Dengue virus, VeroE6/TMPRSS2): 1.89 µM | EC90 (dengue virus type 2 [6]; Dengue virus, VeroE6/TMPRSS2, Maximum measured 155.684 %, Minimum measured 125.095 %, P-gp concentration 2 uM, P-gp inhibitor Elacidar): > 5.56 µM

CC(C)CNC(=O)c1cc(Cl)ccc1NS(=O)(=O)c1ccc(Oc2ccccc2Cl)cc1
EC50 (dengue virus type 2 [1]; Dengue virus, Vero C1008): 5.64 µM | EC90 (dengue virus type 2 [1]; Dengue virus, Vero C1008, Baseline response 0 %, Hill slope -37.142, Maximum measured 110.023 %, Maximum response 100 %, Minimum measured 0.325 %, P-gp concentration 500 nM, R squared 0.985, P-gp inhibitor CP100356): 5.99 µM | EC50 (dengue virus type 2 [8]): 0.569 µM | EC90 (dengue virus type 2 [8]; Hill slope -0.624, Maximum measured 99.166 %, Minimum measured 12.707 %, R squared 0.743): > 16.7 µM | EC90 (Zika virus [2]; Baseline response 0 %, EC90 CI (lower) 6.158 uM, EC90 CI (upper) 70.47 uM, Hill slope -6.578, Maximum measured 126.059 %, Maximum response 100 %, Minimum measured 2.779 %, P-gp concentration 2 uM, R squared 0.75, P-gp inhibitor Elacidar): 40.6 µM | EC90 (Zika virus [2]; Zika virus, VeroE6/TMPRSS2): 32.4 µM | EC90 (Zika virus [2]; Zika virus, VeroE6/TMPRSS2, Maximum measured 119.408 %, Minimum measured 55.418 %, P-gp concentration 2 uM, P-gp inhibitor Elacidar): > 3.33 µM | EC50 (Zika virus [2]; veroe6/tmprss2): > 3.33 µM and 19.2 µM and 29.1 µM | EC50 (Zika virus [3]; Zika virus, Vero C1008): > 50 µM | EC90 (Zika virus [3]; Zika virus, Vero C1008, Maximum measured -0.388 %, Minimum measured -2.415 %): > 50 µM | EC50 (Zika virus [9]): 4.4 µM | EC90 (Zika virus [9]; VeroE6/TMPRSS2, Baseline response 0 %, Hill slope -0.566, Maximum measured 86.366 %, Maximum response 100 %, Minimum measured 3.533 %, R squared 0.722): > 50 µM | EC50 (dengue virus type 2 [10]): > 6.5 µM | EC90 (dengue virus type 2 [6]; Baseline response 0 %, EC90 CI (lower) 0.741 uM, EC90 CI (upper) 4.671 uM, Hill slope -3.39, Maximum measured 117.923 %, Maximum response 100 %, Minimum measured 16.6 %, P-gp concentration 2 uM, R squared 0.718, P-gp inhibitor Elacidar): 6.8 µM | EC90 (dengue virus type 2 [6]; Baseline response 0 %, EC90 CI (lower) […] uM, EC90 CI (upper) 0.019 uM, Hill slope -1.255, Maximum measured 118.581 %, Maximum response 100 %, Minimum measured 5.952 %, P-gp concentration 2 uM, R squared 0.745, P-gp inhibitor Elacidar): 0.18 µM | EC90 (dengue virus type 2 [6]; Dengue virus, VeroE6/TMPRSS2, Maximum measured 165.458 %, Minimum measured 88.019 %, P-gp concentration 2 uM, P-gp inhibitor Elacidar): > 16.7 µM
